Results on 25 compounds are retold here after patent US7449477B2, “7-phenyl-isoquinoline-5-sulfonylamino derivatives as inhibitors of akt (protein kinase B)” (Eli Lilly and Company, priority 2003, dated 2008).

As usually defined, the IC50 is the point on the concentration scale where inhibition reaches its midpoint.

Counter-ions that a name gives are not always drawn.

The target in the experiment is T1, active human Akt1 (Homo sapiens, UniProt P31749).
T1 construct: Active human recombinant Akt1 (full-length) purified from Sf9 insect cells; purchased Upstate Biotechnology, Inc. 14-276; host or cells: Sf9 insect cells
T1 sequence (P31749 whole entry): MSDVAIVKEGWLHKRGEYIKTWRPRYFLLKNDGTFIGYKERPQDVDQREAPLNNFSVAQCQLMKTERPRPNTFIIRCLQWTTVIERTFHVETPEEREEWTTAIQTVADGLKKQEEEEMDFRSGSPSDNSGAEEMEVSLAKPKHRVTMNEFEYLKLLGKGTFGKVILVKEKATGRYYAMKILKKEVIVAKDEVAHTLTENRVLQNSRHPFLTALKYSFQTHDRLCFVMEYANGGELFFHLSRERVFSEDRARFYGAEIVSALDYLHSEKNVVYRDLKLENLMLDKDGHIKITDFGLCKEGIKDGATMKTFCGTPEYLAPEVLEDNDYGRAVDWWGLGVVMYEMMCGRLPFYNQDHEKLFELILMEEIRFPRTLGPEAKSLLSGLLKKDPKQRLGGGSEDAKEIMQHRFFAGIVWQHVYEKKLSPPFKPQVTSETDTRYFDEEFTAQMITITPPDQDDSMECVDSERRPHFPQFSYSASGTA
Kind of experiment: Akt1 Phosphorylation Assay (phosphocellulose filter-binding, 33P-Crosstide). The format is biochemical. As to conditions: active human recombinant Akt1 (full-length) 10 nM; 12.5 μM Crosstide; 20 μM ATP; 30 minutes at room temperature. As to the method: Akt1 Phosphorylation Assay
The assay described measures the phosphorylation of Crosstide by active human Akt1 and other Akt isoforms. Crosstide contains a consensus sequence derived from Akt substrates GSK3b and forkhead transcription factors (FKs). The ^33P-labeled Crosstide substrate is captured by phosphocellulose membrane filter plates.
Active human recombinant Akt1 (full-length) purified from Sf9 insect cells is from Upstate Biotechnology, Inc. (Cat. #14-276, 405 μg/ml). Crosstide substrate, NH2-GRPRTSSFAEG-COOH (M.W.1164) is purchased from Multiple Peptide System (Cat. # L59/GR145-153).
Solution (A): 20% DMSO (dimethylsulphoxide) or Compound in 20% DMSO; Solution (B): Assay Buffer Mix: 31.25 μM Crosstide, 37.5 mM MgCl2, 87.5 mM HEPES, pH 7.3, 50 μM ATP γ-^33P-ATP, 0.05 μCi/μl; Solution (C): Akt Kinase Mix: 31.25 mM HEPES, pH 7.3; 1 mM DTT, 25 nM UBI Akt1.
Procedure for Phosphocellulose Filter-Binding Assay
Ten μl of Solution (A) are first mixed with 20 μl Solution (B). The enzymatic reaction is initiated by adding 20 μl Solution (C) to the mixture. (Final concentration or amount in a 50-μl reaction mix: 4% DMSO or various compound concentration in 4% DMSO; 12.5 μM Crosstide; 15 mM MgCl2; 35 mM HEPES, pH7.3; 20 μM ATP; 1 μCi γ-^33P-ATP; 0.4 mM DTT; 10 nM UBI Akt1.) The reactions are performed in 96-well microtiter plates.
After 30 minutes at room temperature, the reaction is terminated by adding 80 μl of 10% H3PO4. An aliquot of 100 μl from each well is transferred to the phosphocellulose filter plate (Millipore MultiScreen, Catalog #MAPHN0B50). After 30 minutes, the reaction mix is filtered with a Millipore manifold following by 3 washes with 0.5% H3PO4. The filter is then vacuum-dried and the plate is fitted onto a Packard carrier. 100 μl/well Microscint20 are added and the contents are counted in a Packard Top Count.
Turning to `O=[N+]([O-])c1ccc(CC(O)CNCCNS(=O)(=O)c2cc(-c3ccccc3)cc3cnccc23)cc1` (racemic) [Example 83, 7-Phenyl-isoquinoline-5-sulfonic acid [2-(2-hydroxy-3-(4-nitrophenyl)-propylamino)-ethyl]-amide, dihydrochloride salt], the IC50 is at most 2 µM.

Turning to `CC(=O)Nc1ccc(CCCNCCNS(=O)(=O)c2cc(-c3ccccc3)cc3cnccc23)cc1` [Example 28, 7-Phenyl-isoquinoline-5-sulfonic acid {2-[3-(4-acetamidophenyl)-propylamino]-ethyl}-amide, dihydrochloride salt], the IC50 is at most 2 µM.

With `O=S(=O)(NCCNCCCc1ccc(O)cc1)c1cc(-c2ccccc2)cc2cnccc12` [Example 19, 7-Phenyl-isoquinoline-5-sulfonic acid {2-[3-(4-hydroxyphenyl)-propylamino]-ethyl}-amide, dihydrochloride salt], the IC50 is at most 2 µM.

On to `O=[N+]([O-])c1ccc(CCCNCCNS(=O)(=O)c2cc(-c3cccc(F)c3)cc3cnccc23)cc1` [Example 93, 7-(3-fluorophenyl)-isoquinoline-5-sulfonic acid [2-(3-(4-nitrophenyl)-propylamino)-ethyl]-amide], for which the IC50 is at most 2 µM.

In the case of `COc1cc([N+](=O)[O-])ccc1CCCNCCNS(=O)(=O)c1cc(-c2ccccc2)cc2cnccc12` [Example 63, 7-Phenyl-isoquinoline-5-sulfonic acid {2-[3-(2-methoxy-4-nitrophenyl)-propylamino]-ethyl}-amide, dihydrochloride salt], the IC50 was at most 2 µM.

Turning to `COc1ccc(CCCNCCNS(=O)(=O)c2cc(-c3cccc(O)c3)cc3cnccc23)c(F)c1` [Example 110, 7-(3-Hydroxy-phenyl)-isoquinoline-5-sulfonic acid {2-[3-(2-fluoro-4-methoxy-phenyl)-propylamino]-ethyl}-amide], the IC50 is at most 2 µM.

Turning to `O=S(=O)(NCCNCCCc1ccc(F)cc1-c1ccccc1)c1cc(-c2ccccc2)cc2cnccc12` [Example 36, 7-Phenyl-isoquinoline-5-sulfonic acid {2-[3-(5-fluoro-biphenyl-2-yl)-propylamino]-ethyl}-amide, dihydrochloride salt], the IC50 is at most 2 µM.

Regarding `O=[N+]([O-])c1cccc(CCCNCCNS(=O)(=O)c2cc(-c3ccccc3)cc3cnccc23)c1` [Example 101, 7-Phenyl-isoquinoline-5-sulfonic acid {2-[3-(3-nitro-phenyl)-propylamino]-ethyl}-amide, dihydrochloride salt], the half-inhibitory concentration (IC50) is at most 2 µM.

`O=S(=O)(NCCNCCCc1cccc(Cl)c1Cl)c1cc(-c2ccccc2)cc2cnccc12` [Example 66, 7-Phenyl-isoquinoline-5-sulfonic acid {2-[3-(2,3-dichlorophenyl)-propylamino]-ethyl}-amide, dihydrochloride salt]: the 50% inhibitory concentration (IC50) is at most 2 µM.

In the case of `O=S(=O)(NCCNCCCc1ccc(F)cc1F)c1cc(-c2ccccc2)cc2cnccc12` [Example 70, 7-Phenyl-isoquinoline-5-sulfonic acid {2-[3-(2,4-difluorophenyl)-propylamino]-ethyl}-amide, dihydrochloride salt], the IC50 is at most 2 µM.

Regarding `N#Cc1ccc(C(O)CCNCCNS(=O)(=O)c2cc(-c3ccccc3)cc3cnccc23)cc1` (stereo not shown) [Example 75, 7-Phenyl-isoquinoline-5-sulfonic acid [2-(3-hydroxy-3-(4-cyanophenyl)-propylamino)-ethyl]-amide, dihydrochloride salt], the half-inhibitory concentration (IC50) was at most 2 µM.

For `N#Cc1cccc(CCCNCCNS(=O)(=O)c2cc(-c3ccccc3)cc3cnccc23)c1` [Example 32, 7-Phenyl-isoquinoline-5-sulfonic acid {2-[3-(3-cyanophenyl)-propylamino]-ethyl}-amide, dihydrochloride salt], the 50% inhibitory concentration (IC50) was at most 2 µM.

Turning to `COC(=O)c1cc([N+](=O)[O-])ccc1CCCNCCNS(=O)(=O)c1cc(-c2ccccc2)cc2cnccc12` [Example 62, 7-Phenyl-isoquinoline-5-sulfonic acid {2-[3-(2-methoxycarbonyl-4-nitrophenyl)-propylamino]-ethyl}-amide, dihydrochloride salt], the IC50 is at most 2 µM.

With `CS(=O)(=O)Nc1cccc(-c2cc(S(=O)(=O)NCCNCCCc3ccc([N+](=O)[O-])cc3)c3ccncc3c2)c1` [Example 94, 7-(3-methanesulfonylamino-phenyl)-isoquinoline-5-sulfonic acid {2-[3-(4-nitro-phenyl)-propylamino]-ethyl}-amide, dihydrochloride salt], the IC50 is at most 2 µM.

Turning to `O=[N+]([O-])c1ccc(C(O)C(O)CNCCNS(=O)(=O)c2cc(-c3ccccc3)cc3cnccc23)cc1` (single isomer, unassigned; isomer 1) [Example 88, 7-Phenyl-isoquinoline-5-sulfonic acid [2-(2,3-dihydroxy-3-(4-nitrophenyl)-propylamino)-ethyl]-amide isomer 1, dihydrochloride salt], the IC50 was at most 2 µM.

Consider `CSc1ccc(CCCNCCNS(=O)(=O)c2cc(-c3ccccc3)cc3cnccc23)cc1` [Example 35, 7-Phenyl-isoquinoline-5-sulfonic acid {2-[3-(4-methylthiophenyl)-propylamino]-ethyl}-amide, dihydrochloride salt], for which the IC50 is at most 2 µM.

With `O=S(=O)(NCCNCCCc1ccc(OC(F)(F)C(F)F)cc1)c1cc(-c2ccccc2)cc2cnccc12` [Example 27, 7-Phenyl-isoquinoline-5-sulfonic acid {2-[3-(4-(1,1,2,2-tetrafluoroethoxy)phenyl)-propylamino]-ethyl}-amide, dihydrochloride salt], the IC50 was at most 2 µM.

Take `O=S(=O)(NCCNCCCc1cccc(O)c1)c1cc(-c2ccc(O)cc2)cc2cnccc12` [Example 109, 7-(4-Hydroxy-phenyl)-isoquinoline-5-sulfonic acid {2-[3-(3-hydroxy-phenyl)-propylamino]-ethyl}-amide]: the IC50 is at most 2 µM.

With `CS(=O)(=O)c1ccc(CCCNCCNS(=O)(=O)c2cc(-c3ccccc3)cc3cnccc23)cc1` [Example 100, 7-Phenyl-isoquinoline-5-sulfonic acid {2-[3-(4-methanesulfonyl-phenyl)-propylamino]-ethyl}-amide, dihydrochloride salt], the IC50 was at most 2 µM.

For the compound `CS(=O)(=O)c1ccc(C(O)CCNCCNS(=O)(=O)c2cc(-c3ccccc3)cc3cnccc23)cc1` (stereo not shown) [Example 79, 7-Phenyl-isoquinoline-5-sulfonic acid [2-(3-hydroxy-3-(4-methanesulfonyl-phenyl)-propylamino)-ethyl]-amide, dihydrochloride salt], the IC50 is at most 2 µM.

Turning to `O=S(=O)(NCCNCCCc1ccccc1N1C=CC=NC=C1)c1cc(-c2ccccc2)cc2cnccc12` [Example 7, 7-Phenyl-isoquinoline-5-sulfonic acid {2-[3-(2-[1,4]diazepin-1-yl-phenyl)-propylamino]-ethyl}-amide, tetrahydrochloride salt], the IC50 is at most 2 µM.

Consider `O=S(=O)(NCCNCCCc1ccc(Cl)cc1C1CCNCC1)c1cc(-c2ccccc2)cc2cnccc12` [Example 53, 7-Phenyl-isoquinoline-5-sulfonic acid {2-[3-(4-chloro-2-(piperidin-4-yl)-phenyl)-propylamino]-ethyl}-amide, trihydrochloride salt], for which the IC50 is at most 2 µM.

Consider `O=S(=O)(NCCNCCC(O)c1ccc(S(=O)(=O)C(F)(F)F)cc1)c1cc(-c2ccccc2)cc2cnccc12` (stereo not shown) [Example 80, 7-Phenyl-isoquinoline-5-sulfonic acid [2-(3-hydroxy-3-(4-trifuoromethanesulfonyl-phenyl)-propylamino)-ethyl]-amide, dihydrochloride salt], for which the IC50 is at most 2 µM.

With `O=[N+]([O-])c1ccc([C@@H](O)CCNCCNS(=O)(=O)c2cc(-c3ccccc3)cc3cnccc23)cc1` [Example 82, (S)-7-Phenyl-isoquinoline-5-sulfonic acid [2-(3-hydroxy-3-(4-nitrophenyl)-propylamino)-ethyl]-amide, mesylate salt], the IC50 is at most 2 µM.

Consider `O=[N+]([O-])c1ccc(CCCNCCNS(=O)(=O)c2cc(-c3ccccc3)cc3cnccc23)c(CCO)c1` [Example 58, 7-Phenyl-isoquinoline-5-sulfonic acid {2-[3-(2-(2-hydroxy-ethyl)-4-nitro-phenyl)-propylamino]-ethyl}-amide, dihydrochloride salt], for which the half-inhibitory concentration (IC50) is at most 2 µM.
